According to patent US6444234B1, “Compositions for rapid and non-irritating transdermal delivery of pharmaceutically active agents and methods for formulating such compositions and delivery thereof” (priority 1998, dated 2002):

Experiments:
[1] = assay type: physicochemical
Excerpt: The following tables are typical data sheets generated by the Chem3D software. These charts confirm the independent experimental solubility data and also, in Tables 1-3, show how modulation of the carrier system allows a higher dose of the test medicament, Diosgenin (MW=414.61).
It is pointed out, however, that the formulations shown in the following Tables, and which are based on the above described Stock Delivery System, were originally prepared without benefit of the use of the Chem 3D software and included omission of several different modifiers. Modifications to the SDS to effect solubilization and increase solute solvent ratios were made by the inventor on the basis of knowledge of how and where the solute (drug) works in the body and using this information to make intuitive predictions of how the solute would interact with the surrounding molecules of the SDS, such as induced polarities relative to other molecules; induction of electric fields due to influence of surrounding molecules; hydrophobic versus hydrophilic properties, etc., while always taking into consideration the desired functional effects contributed by each ingredient. […]

[2] = Laboratory solubilization of amitriptyline in the modified stock delivery system; assay type: physicochemical; details: modified SDS; predicted amount within experimental error of the actual amount
Excerpt: The following Table 4 illustrates how the balancing of molar van der Waals forces can be utilized as a predictor of the solubilization of amitriptyline in the stock delivery system. In this case the calculations for balancing molar van der Waals forces were made first using the Chem3D software and the solutions were thereafter formulated in the laboratory. The amount predicted to dissolve, 2.08 gm per 100 c.c., was within experimental error of the actual amount which would dissolve in the laboratory experiment. In this case, the system was balanced by increasing the amounts of methylsulfonylmethane and ethanol and decreasing the amount of propylene glycol.

[3] = test system: air pouch granulomas; experiment: Murine Chronic Granulomatous Air-Pouch Model; assay type: in vivo, mouse; details: normally sub-effective dose (30 mg/kg); decrease in dry weight of the granuloma
Excerpt: This example describes the results of an animal (mouse) study performed at St. Bartholomew's and The Royal London School of Medicine and Dentistry, Department of Experimental Pathology, to establish the efficacy of the topical delivery system, based on the Stock Delivery System of this invention for transdermal delivery of Cystamine (2,2′-dithiobisethanamine). A Murine Chronic Granulomatous Air-Pouch Model was used for evaluation of the delivery of the drug with SDS versus a control vehicle alone; control vehicle plus drug; and SDS alone.
In this study, 1 milligram (mg) of cystamine was added to 0.5 cc of Standard Stock Solution (SDS) as previously described, or to a control vehicle (aqueous isopropanol). In each case, the active ingredient (cystamine) was administered in an amount of 30 mg per kilogram of body weight.
Mice (TO or BALB/c, for hormone studies, 30±5 g) were lightly anaesthetized with halothane. Three milliliters of air were injected subcutaneously into the scruff of the neck using a 25 G needle. The shape of the air pouch was controlled by manipulation during inflation. […]
Vascularity was assessed by a modified form (see Kimura et al, [need citation] 1986) of the Carmine Red Vascular Casting technique. […] The dye content was measured spectrophotometrically at 490 nm against a standard curve of dye from 1-100 μg/ml. […]

[4] = Pilot trial on three hairless rats, blood samples after topical delivery system; assay type: in vivo, hairless rat
Method: A pilot trial is performed on three hairless rats, during which a baseline blood sample is drawn, then 1 ml of the topical delivery system containing a titrated dose of each of the three test drugs is administered to each of the rats. Samples are harvested at 30 and 60 minutes.

[5] = Full-scale protocol trial on 15 hairless rats; details: topical
Method: Samples for the morphine and acyclovir groups are taken at 30 minutes, 60 minutes and 120 minutes.

Compound: C[C@@H]1CC[C@@]2(OC1)O[C@H]1C[C@H]3[C@@H]4CC=C5C[C@@H](O)CC[C@]5(C)[C@H]4CC[C@]3(C)[C@H]1[C@@H]2C [Diosgenin, (25R)-Spirost-5-en-3β-ol]
- increase of solubilized dose [1]: ~5 fold

Compound: CN(C)CCC=C1c2ccccc2CCc2ccccc21 [Amitriptyline]
- actual amount which would dissolve in the laboratory experiment [2]: ~2.08 gm per 100 c.c.

Compound: NCCSSCCN [cystamine, 2,2′-dithiobisethanamine]
- efficacy of the dose when delivered with SDS [3]: effective dose

Compound: CN1CC[C@]23c4c5ccc(O)c4O[C@H]2[C@@H](O)C=C[C@H]3[C@H]1C5.O=S(=O)(O)O [morphine sulfate]
- blood sample level, Baseline ([4]; before 1 ml of the topical delivery system): 0
- blood sample level, 60 minutes ([4]; morphine 2.5 mg in 1 ml, topical): 45 nmol/L
- blood levels compared with intravenous dosing ([5]; 2.5 mg dose of morphine): equivalent to a 10 mg IV dose

Compound: Nc1nc2c(ncn2COCCO)c(=O)[nH]1 [Acyclovir]
- blood sample level, Baseline ([4]; hairless, rat, in vivo): 0

Compound: C[C@]12CC[C@H]3[C@@H](CCC4=CC(=O)CC[C@@]43C)[C@@H]1CC[C@@H]2O [Testosterone]
- blood sample level, 30 minutes ([4]; testosterone 5 mg in 1 ml, topical): 1,552 ng/dl
- increase of testosterone levels ([5]; in one hour, 5 mg in 1 ml): 10 fold
